Experimental data: patent US20180071317A1, “USE OF AGENTS THAT ALTER THE PERITUMORAL ENVIRONMENT FOR THE TREATMENT OF CANCER” (SERVICIO ANDALUZ DE SALUD, priority 2011, published 2018)

Experiments:
[1] = system: mononuclear cells; assay: Marker expression (immunohistochemistry) in mononuclear blood cells with SP alone or with NK1 antagonists; assay type: cell-based, human; conditions: SP 1 μM; 48 h
Source text: Briefly, heparinized blood from healthy donors was centrifuged so as to separate the various components thereof. Red blood cells remained at the bottom of the tube. Above them was a small white layer composed of the white blood cells and above, on top of the tube, the blood plasma. The layer of white cells was distributed in a culture plate of 24 wells by adding in each the same concentration of blood plasma from the same donor, supplemented with 1% antibiotic-antimycotic (Invitrogen). In each well, approximately 1000 cells (PHF) skin from the dermis were further added, obtained as previously described in Example 2. […] After 48 hours of incubation, cells were collected and embedded in paraffin for expression analysis by immunohistochemical techniques (as described in Example 1).
The expression of TGF molecular markers (anti-TGF 2, SAB4502956) and NF-kB (anti-NF-kB, SAB4501992) using specific antibodies against them were analyzed. All antibodies used were rabbit polyclonal antibodies obtained from Sigma Aldrich and were used at a concentration of 1/1000. All experiments were carried out sixfold.

[2] = system: fibroblasts (PHF) co-cultured with tumor cells of human pancreatic adenocarcinoma (CAPAN-1); assay: Marker expression (IHC) in PHF co-cultured with CAPAN-1 tumor cells; assay type: cell-based; conditions: co-culture with CAPAN-1; SP 1 μM; 48 h;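 further: cultures grown in fresh plasma from a healthy human donor, run in six replicates, value is percent of fibroblasts positive for each marker, compared with fibroblasts cultured alone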
Procedure: All cultures were maintained 48 hours, following which the same cells were included in paraffin blocks for subsequent analysis of the expression of different markers by immunohistochemistry (see Example 1). The primary antibodies used to perform immunohistochemical assays and their concentration are detailed in Example 2. All experiments were carried out sixfold. Analyzed markers in fibroblast cells (stromal cells) were: TGF-α, TGF-β1, TGF-β2, TGF-β3, SPARC, MMP-3, MMP-7, MMP-9, MMP-11, MMP-13 and MMP-14.

[3] = system: fibroblasts (PHF) co-cultured with tumor cells of lung carcinoma (A-427); assay: Marker expression (IHC) in PHF co-cultured with A-427 tumor cells; assay type: cell-based, human; conditions: co-culture with A-427 lung carcinoma; SP 1 μM; 48 h;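 further: cultures grown in human blood plasma from a healthy donor, value is the percentage of fibroblasts positive for each marker, six replicates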
Procedure: (§1) All cultures were maintained 48 hours, following which the same cells were included in paraffin blocks for subsequent analysis of the expression of different markers by immunohistochemistry (see Example 1). […] All experiments were carried out sixfold. Analyzed markers in fibroblast cells (stromal cells) were: TGF-α, TGF-β1, TGF-β2, TGF-β3, SPARC, MMP-3, MMP-7, MMP-9, MMP-11, MMP-13 and MMP-14.

[4] = system: fibroblasts (PHF) co-cultured with tumor cells, thyroid carcinoma (reference A-427); assay: Marker expression (IHC) in PHF co-cultured with thyroid carcinoma tumor cells; assay type: cell-based, human; conditions: co-culture with thyroid carcinoma cells; SP 1 μM; 48 h;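 further: grown in fresh plasma from a healthy human donor, read-out is percent of fibroblasts positive for each marker, compared with fibroblasts cultured alone, run in six replicates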
Procedure: as §1

[5] = system: fibroblasts (PHF) co-cultured with tumor cells, thyroid carcinoma; assay: as above; assay type: cell-based, human; conditions: co-culture with thyroid carcinoma cells; SP 1 μM; 48 h
Procedure: as §1

[6] = system: fibroblasts (PHF) co-cultured with tumor cells in human prostate carcinoma (22Rv1); assay: Marker expression (IHC) in PHF co-cultured with 22Rv1 tumor cells; assay type: cell-based; conditions: co-culture with 22Rv1; SP 1 μM; 48 h;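 further: cultures grown on fresh plasma from a healthy donor, each experiment run sixfold, values give the percentage of fibroblasts positive for the given marker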
Procedure: as §1

[7] = system: fibroblasts (PHF) co-cultured with human fibrosarcoma tumor cells (HT-1080); assay: Marker expression (IHC) in PHF co-cultured with HT-1080 tumor cells; assay type: cell-based; conditions: co-culture with HT-1080; SP 1 μM; 48 h;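 further: cultures grown in fresh human plasma from a healthy donor, six replicates, value is percent of fibroblasts positive for the marker, compared with fibroblasts cultured without tumor cells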
Procedure: as §1

[8] = system: fibroblast cells in co-culture with cells isolated from primary human tumors; assay: Marker expression (IHC) in fibroblasts co-cultured with primary human tumor cells (colon, pancreatic, lung carcinoma, glioma, multiple myeloma); assay type: cell-based
[9] = Primary tumor cells (colon carcinoma) co-cultured + fibroblast + SP (1 μM)
[10] = co-culture with cells isolated from glioma, SP 1 μM
[11] = co-culture with cells isolated from lung cancer, SP 1 μM
[12] = co-culture with cells isolated from multiple myeloma, SP 1 μM
[13] = co-culture with cells isolated from pancreatic carcinoma, SP 1 μM

CSCC[C@H](NC(=O)[C@H](CC(C)C)NC(=O)CNC(=O)[C@H](Cc1ccccc1)NC(=O)[C@H](Cc1ccccc1)NC(=O)[C@H](CCC(N)=O)NC(=O)[C@H](CCC(N)=O)NC(=O)[C@@H]1CCCN1C(=O)[C@H](CCCCN)NC(=O)[C@@H]1CCCN1C(=O)[C@@H](N)CCCNC(=N)N)C(N)=O [SP]
mononuclear cells expressing NF-kB [1]: 25.7 ± 1.4% | mononuclear cells expressing TGF-β [1]: 16.4 ± 1.2% | PHF cells expressing MMP-3 [2]: 44.4 ± 1.6% | PHF cells expressing MMP-7 [2]: 58.2 ± 2.4% | PHF cells expressing MMP-9 [2]: 56.4 ± 1.5% | PHF cells expressing MMP-11 [2]: 25.3 ± 1.5% | PHF cells expressing MMP-13 [2]: 55 ± 3.6% | PHF cells expressing MMP-14 [2]: 47.2 ± 4.7% | PHF cells expressing SPARC [2]: 49 ± 1.4% | PHF cells expressing TGF-α [2]: 42.4 ± 2.1% | PHF cells expressing TGF-β1 [2]: 37.6 ± 1.4% | PHF cells expressing TGF-β2 [2]: 42.4 ± 6.1% | PHF cells expressing TGF-β3 [2]: 43 ± 2.6% | PHF cells expressing MMP-3 [3]: 45.5 ± 1.6% | PHF cells expressing MMP-7 [3]: 54.3 ± 2.2% | PHF cells expressing MMP-9 [3]: 55.5 ± 2.4% | PHF cells expressing MMP-11 [3]: 25.5 ± 1.8% | PHF cells expressing MMP-13 [3]: 44.3 ± 2.5% | PHF cells expressing MMP-14 [3]: 45.1 ± 3.5% | PHF cells expressing SPARC [3]: 47 ± 1.2% | PHF cells expressing TGF-α [3]: 42.3 ± 2.1% | PHF cells expressing TGF-β1 [3]: 33.4 ± 2.1% | PHF cells expressing TGF-β2 [3]: 40.9 ± 2.1% | PHF cells expressing TGF-β3 [3]: 51.4 ± 1.6% | PHF cells expressing MMP-3 [4]: 43.1 ± 1.7% | PHF cells expressing MMP-7 [4]: 56.4 ± 3.8% | PHF cells expressing MMP-9 [4]: 51.4 ± 3.4% | PHF cells expressing MMP-13 [4]: 4.25 ± 3.6% | PHF cells expressing MMP-14 [4]: 49.1 ± 3.6% | PHF cells expressing SPARC [4]: 48.1 ± 1.3% | PHF cells expressing TGF-α [4]: 42.4 ± 1.2% | PHF cells expressing TGF-β1 [4]: 33.7 ± 1.3% | PHF cells expressing TGF-β2 [4]: 42.6 ± 1.1% | PHF cells expressing TGF-β3 [4]: 42.1 ± 1.5% | PHF cells expressing MMP-11 [5]: 29.4 ± 3.8% | PHF cells expressing MMP-3 [6]: 43.3 ± 2.7% | PHF cells expressing MMP-7 [6]: 54.3 ± 4.8% | PHF cells expressing MMP-9 [6]: 51.4 ± 2.4% | PHF cells expressing MMP-11 [6]: 28.5 ± 3.8% | PHF cells expressing MMP-13 [6]: 46 ± 2.5% | PHF cells expressing MMP-14 [6]: 49 ± 3.5% | PHF cells expressing SPARC [6]: 48.1 ± 3.2% | PHF cells expressing TGF-α [6]: 41.4 ± 2.1% | PHF cells expressing TGF-β1 [6]: 34.5 ± 3.1% | PHF cells expressing TGF-β2 [6]: 42.5 ± 2.1% | PHF cells expressing TGF-β3 [6]: 4.11 ± 3.6% | PHF cells expressing MMP-3 [7]: 43.4 ± 2.8% | PHF cells expressing MMP-7 [7]: 57.1 ± 3.8% | PHF cells expressing MMP-9 [7]: 52.3 ± 2.4% | PHF cells expressing MMP-11 [7]: 27.5 ± 3.8% | PHF cells expressing MMP-13 [7]: 45.4 ± 3.6% | PHF cells expressing MMP-14 [7]: 49.3 ± 3.5% | PHF cells expressing SPARC [7]: 51.2 ± 3.3% | PHF cells expressing TGF-α [7]: 42.5 ± 3.1% | PHF cells expressing TGF-β1 [7]: 33.6 ± 3.1% | PHF cells expressing TGF-β2 [7]: 40.7 ± 2.1% | PHF cells expressing TGF-β3 [7]: 51 ± 1.6% | Percentage of fibroblast cells which expressed MMP-3 [8, 9]: 47.4 ± 2.4% | Percentage of fibroblast cells which expressed MMP-7 [8, 9]: 55.1 ± 3.6% | Percentage of fibroblast cells which expressed MMP-9 [8, 9]: 54.7 ± 4.5% | Percentage of fibroblast cells which expressed MMP-11 [8, 9]: 28.4 ± 4.4% | Percentage of fibroblast cells which expressed MMP-13 [8, 9]: 43.4 ± 4.6% | Percentage of fibroblast cells which expressed MMP-14 [8, 9]: 48.6 ± 5.6% | Percentage of fibroblast cells which expressed SPARC [8, 9]: 47 ± 2.7% | Percentage of fibroblast cells which expressed TGFα [8, 9]: 45.5 ± 4.2% | Percentage of fibroblast cells which expressed TGFβ1 [8, 9]: 35.3 ± 2.3% | Percentage of fibroblast cells which expressed TGFβ2 [8, 9]: 44.5 ± 3.6% | Percentage of fibroblast cells which expressed TGFβ3 [8, 9]: 45 ± 3.9% | Percentage of fibroblast cells which expressed MMP-3 [8, 10]: 48.4 ± 5.1% | Percentage of fibroblast cells which expressed MMP-7 [8, 10]: 59.4 ± 5.7% | Percentage of fibroblast cells which expressed MMP-9 [8, 10]: 55.5 ± 4.5% | Percentage of fibroblast cells which expressed MMP-11 [8, 10]: 28.9 ± 4.7% | Percentage of fibroblast cells which expressed MMP-13 [8, 10]: 48.0 ± 5.6% | Percentage of fibroblast cells which expressed MMP-14 [8, 10]: 46.3 ± 3.6% | Percentage of fibroblast cells which expressed SPARC [8, 10]: 56.2 ± 4.2% | Percentage of fibroblast cells which expressed TGFα [8, 10]: 38.4 ± 2.3% | Percentage of fibroblast cells which expressed TGFβ1 [8, 10]: 35.4 ± 2.6% | Percentage of fibroblast cells which expressed TGFβ2 [8, 10]: 42.4 ± 4.2% | Percentage of fibroblast cells which expressed TGFβ3 [8, 10]: 52.1 ± 3.7% | Percentage of fibroblast cells which expressed MMP-3 [8, 11]: 51.5 ± 5.8% | Percentage of fibroblast cells which expressed MMP-7 [8, 11]: 54.4 ± 6.3% | Percentage of fibroblast cells which expressed MMP-9 [8, 11]: 56.5 ± 4.6% | Percentage of fibroblast cells which expressed MMP-11 [8, 11]: 38.6 ± 3.4% | Percentage of fibroblast cells which expressed MMP-13 [8, 11]: 46.3 ± 3.4% | Percentage of fibroblast cells which expressed MMP-14 [8, 11]: 47.6 ± 5.6% | Percentage of fibroblast cells which expressed SPARC [8, 11]: 47.3 ± 4.2% | Percentage of fibroblast cells which expressed TGFα [8, 11]: 37.5 ± 2.3% | Percentage of fibroblast cells which expressed TGFβ1 [8, 11]: 37.3 ± 3.3% | Percentage of fibroblast cells which expressed TGFβ2 [8, 11]: 52.3 ± 2.8% | Percentage of fibroblast cells which expressed TGFβ3 [8, 11]: 46.1 ± 4.3% | Percentage of fibroblast cells which expressed MMP-3 [8, 12]: 46.6 ± 5.7% | Percentage of fibroblast cells which expressed MMP-7 [8, 12]: 57.6 ± 4.1% | Percentage of fibroblast cells which expressed MMP-9 [8, 12]: 57.3 ± 4.5% | Percentage of fibroblast cells which expressed MMP-11 [8, 12]: 29.4 ± 3.1% | Percentage of fibroblast cells which expressed MMP-13 [8, 12]: 47.5 ± 4.3% | Percentage of fibroblast cells which expressed MMP-14 [8, 12]: 47.2 ± 3.4% | Percentage of fibroblast cells which expressed SPARC [8, 12]: 46.3 ± 3.2% | Percentage of fibroblast cells which expressed TGFα [8, 12]: 49.3 ± 3.3% | Percentage of fibroblast cells which expressed TGFβ1 [8, 12]: 45.6 ± 4.2% | Percentage of fibroblast cells which expressed TGFβ2 [8, 12]: 52.3 ± 3.2% | Percentage of fibroblast cells which expressed TGFβ3 [8, 12]: 47.4 ± 3.5% | Percentage of fibroblast cells which expressed MMP-3 [8, 13]: 47.5 ± 6.1% | Percentage of fibroblast cells which expressed MMP-7 [8, 13]: 56.6 ± 5.1% | Percentage of fibroblast cells which expressed MMP-9 [8, 13]: 54.1 ± 5.2% | Percentage of fibroblast cells which expressed MMP-11 [8, 13]: 27.1 ± 6.2% | Percentage of fibroblast cells which expressed MMP-13 [8, 13]: 57.2 ± 4.7% | Percentage of fibroblast cells which expressed MMP-14 [8, 13]: 46.2 ± 5.1% | Percentage of fibroblast cells which expressed SPARC [8, 13]: 43.7 ± 4.5% | Percentage of fibroblast cells which expressed TGFα [8, 13]: 44.2 ± 4.5% | Percentage of fibroblast cells which expressed TGFβ2 [8, 13]: 43.6 ± 7.4% | Percentage of fibroblast cells which expressed TGFβ3 [8, 13]: 45.4 ± 5.6%
